According to PMC8232621, “Antimicrobial Activity of a Library of Thioxanthones and Their Potential as Efflux Pump Inhibitors” (Pharmaceuticals, 2021):

Test system: the used strains
Assay: Antibacterial activity (MIC), strains not specified
Assay type: cell-based
Settings: concentrations tested; results not shown
Procedure: The minimum inhibitory concentration (MIC) for each compound was determined by broth microdilution method in a 96-well plate according to the Clinical and Laboratory Standard Institute (CLSI) guidelines. The medium used was MHB II. […] DMSO was used in subinhibitory concentrations (1% v/v). The MIC was determined by visual inspection.

`NS(=O)(=O)c1ccc(C(=O)O)cc1` [4-sulfamoylbenzoic acid] was tested, and the MIC was “did not display an observable MIC”.
